In patent US20120121723A1, “Antimicrobial Compositions” (priority 2005, published 2012):
Read-outs that look alike come from different tables or passages of the source.

What was measured:
[1] = test system: MRSA; experiment: MIC by tube dilution and Kull synergy index against MRSA; assay type: cell-based, Staphylococcus aureus; details: for MIC: Staphylococcus aureus
From the text: (§1) MIC testing and synergistic effects studies. The microorganisms were clinically obtained isolates. Staphylococcus aureus is a clinically significant member of the gram-positive group of bacterial pathogens. It gives rise to serious infections, and can produce bacteremia, endocarditis, and meningitis. Methicillin-resistant strains of Staphylococcus aureus (MRSA) were chosen for evaluation because they are a significant medical problem, particularly in view of the fact that methicillin is a drug of choice for treatment of S. aureus infection in the common penicillin-resistant strains. Escherichia coli was also chosen for evaluation. E. coli is a gram-negative pathogenic enterobacteriaceae, and is commonly used as a model organism for bacteria in general. The E. coli strain O157:H7, one of hundreds of strains of the bacterium E. coli, causes illness in humans.
(§2) All individual components are present in the combination at a starting point of 10,000 μg/mL, or 1% unless otherwise noted in the parenthesis in the attached tables. Combinations are serially diluted to obtain the MIC. […]
(§3) Abbreviations in Tables 2 and 3 are as follows. MIC is the Minimum Inhibitory Concentration. MRSA is Methicillin-resistant Staphylococcus Aureus. E. coli is Escherichia coli. […] Pluronic® F127 is Pluronic® F127 microemulsion.
(§4) The Minimum Inhibitory Concentrations (MIC) were determined using tube dilution sensitivities. […] The cultures were incubated overnight at 37° C. and MICs were recorded. The MIC was determined as the lowest concentration of a combination which prevented visible microorganism growth (e.g., turbidity). A culture growth control without compound and several culture sensitive reference agents were used as positive controls. The assays were performed in triplicate.
(§5) Dilutions of the compositions were added to bacterial growth media (tryptic soy broth) to result in a set of tubes with a concentration range of 0.001 mg/L-1000 mg/L of the combination.
(§6) QB is the ppm (MIC) of active substance B alone which produces an endpoint. QC is the ppm (MIC) of active substance C alone which produces an endpoint. Qa is the ppm (MIC) of active substance A, in the combination, which produces an endpoint. Qb is the ppm (MIC) of active substance B, in the combination, which produces an endpoint. Qc is the ppm (MIC) of active substance C, in the combination, which produces an endpoint. And so on for Qn components.
(§7) If the SI of Qa/QA+Qb/QB+Qc/QC is less than one, synergy is indicated. A value greater than one indicates antagonism. A value equal to one indicates additivity.

[2] = test system: E. coli; experiment: microbe, parasite or virus in culture; assay type: cell-based, Escherichia coli; details: for MIC: Escherichia coli
From the text: as §1, §2, §3, §4, §5, §6, §7

[3] = test system: resistant E. coli; experiment: Additional synergy testing: combination plus 0.5X MIC of an antibiotic; assay type: cell-based, Escherichia coli
[4] = Table 2, MIC of Component 3 alone against MRSA
[5] = Table 2, MIC of Component 1 alone against MRSA, read-out: 1-MIC-
[6] = Table 2, MIC of Component 2 alone against MRSA, read-out: 2-MIC-
[7] = Table 3, MIC of Component 1 alone against E. coli, read-out: 1-MIC-
[8] = Table 3, MIC of Component 2 alone against E. coli, read-out: 2-MIC-
[9] = Table 2, MIC of Component 2 alone against MRSA

## Oc1cccc2cccnc12 [8-hydroxyquinoline]
[1]; MRSA, read-out: 3-MIC-
  MIC: 1.56 µg/mL
[1]; MRSA, read-out: 3-MIC-MRSA
  MIC: 1.56 µg/mL
[2]; read-out: 3-MIC-
  MIC: 50 µg/mL

## 2-hydroxypropyl-α-cyclodextrin
[1]; [4]
  3-MIC-: 1001 ppm
[1]; Table 5, Component 3 alone
  3-MIC-MRSA: 1001 ppm

## CCCCCCCCCCCCN(CCCN)CCCN [N,N-bis(3-aminopropyl)-dodecylamine, N,N-bis-(3-aminopropyl)dodecylamine]
[1]; [5]
  MIC: 12.5 µg/mL
[1]; [6]
  MIC: 12.5 µg/mL
[2]; [7]
  MIC: 25 µg/mL
[2]; [8]
  MIC: 25 µg/mL

## gentamicin
[3]
  MIC Ab alone (B) QB: 100 µg/mL

## CN(C)[C@@H]1C(=O)C(C(N)=O)=C(O)[C@@]2(O)C(=O)C3=C(O)c4c(O)cccc4[C@@](C)(O)[C@H]3C[C@@H]12 [tetra, tetracycline]
[3]
  MIC Ab alone (B) QB: 400 µg/mL

## C=CC(C)(O)CCC=C(C)CCC=C(C)C (stereo not shown) [Nerolidol, nerolidol]
[1]; MRSA, Table 5, Comp. 1 alone, read-out: 1-MIC-MRSA
  MIC: 500 µg/mL
[1]; [5]
  MIC: 500 µg/mL
[2]; [7]
  MIC: 1000 µg/mL

## CC(O)(P(=O)(O)O)P(=O)(O)O [HEDP, 1-hydroxyethylidene-1,1-diphosphonic acid]
[1]; [4]
  3-MIC-: 1001 ppm
[1]; Table 5, Component 3 alone
  3-MIC-MRSA: 1001 ppm
[2]; Table 3, MIC of Component 3 alone against E. coli
  3-MIC-: 1001 ppm

## O=C(O)c1ccccc1O [Salicylic acid, salicylic acid]
[1]; MRSA, Table 5, Component 3 alone, read-out: 3-MIC-MRSA
  MIC: 1000 µg/mL
[1]; Table 2, MIC of Component 3 alone against MRSA, read-out: 3-MIC-
  MIC: 1000 µg/mL
[2]; Table 3, MIC of Component 3 alone against E. coli, read-out: 3-MIC-
  MIC: 1000 µg/mL

## C=CCN=C=S [Allyl isothiocyanate, allyl isothiocyanate]
[1]; MRSA, read-out: 1-MIC-
  MIC: 1000 µg/mL
[1]; MRSA, read-out: 2-MIC-
  MIC: 1000 µg/mL
[1]; MRSA, read-out: 2-MIC-MRSA
  MIC: 1000 µg/mL
[2]; [7]
  MIC: 1000 µg/mL
[2]; [8]
  MIC: 1000 µg/mL

## C=C(C)[C@H]1CC=C(C)CC1 [Limonene, limonene]
[1]; Table 2, MIC of Component 1 alone against MRSA
  1-MIC-: 1001 ppm
[1]; [9]
  2-MIC-: 1001 ppm
[1]; Table 5, Comp. 1 alone
  1-MIC-MRSA: 1001 ppm
[2]; Table 3, MIC of Component 1 alone against E. coli
  1-MIC-: 1000 ppm
[2]; Table 3, MIC of Component 2 alone against E. coli
  2-MIC-: 1001 ppm

## CN(C)c1ccc2nc3ccc(=[N+](C)C)cc-3sc2c1 [Methylene blue, methylene blue]
[1]; [6]
  MIC: 25 µg/mL
[2]; [7]
  MIC: 1000 µg/mL
[2]; [8]
  MIC: 1000 µg/mL

## CC(=O)c1c(O)c(C)c(O)c2c1OC1=CC(=O)C(C(C)=O)C(=O)C12C (stereo not shown) [Usnic Acid, usnic acid]
[1]; MRSA, read-out: 1-MIC-
  MIC: 6.25 µg/mL
[1]; MRSA, read-out: 2-MIC-
  MIC: 6.25 µg/mL
[1]; MRSA, read-out: 2-MIC-MRSA
  MIC: 6.25 µg/mL
[2]; [7]
  MIC: 1000 µg/mL
[2]; [8]
  MIC: 1000 µg/mL

## [O-][n+]1ccccc1S [Pyrithione, pyrithione]
[1]; MRSA, read-out: 2-MIC-
  MIC: 0.79 µg/mL
[1]; MRSA, read-out: 2-MIC-MRSA
  MIC: 0.79 µg/mL
[2]; read-out: 2-MIC-
  MIC: 6.25 µg/mL

## O=C(/C=C/C=C/c1ccc2c(c1)OCO2)N1CCCCC1 [Piperine, piperine]
[1]; MRSA, read-out: 1-MIC-
  MIC: 1000 µg/mL
[1]; MRSA, read-out: 2-MIC-
  MIC: 1000 µg/mL
[1]; MRSA, read-out: 2-MIC-MRSA
  MIC: 1000 µg/mL
[2]; [7]
  MIC: 1000 µg/mL
[2]; [8]
  MIC: 1000 µg/mL

## O=C(O)CN(CCN(CC(=O)O)CC(=O)O)CC(=O)O.[K] [Sample K2EDTA, potassium ethylenediaminetetraacetic acid]
[1]; MRSA, read-out: 3-MIC-
  MIC: 500 µg/mL
[1]; MRSA, read-out: 3-MIC-MRSA
  MIC: 500 µg/mL
[2]; read-out: 3-MIC-
  MIC: 1000 µg/mL

## CCCCCCCCO[C@@H]1O[C@H](CO)[C@@H](O)[C@H](O)[C@H]1O [Octyl glucoside, octyl glucoside]
[1]; [9]
  2-MIC-: 1001 ppm

## C[C@H]1c2cccc(O)c2C(O)=C2C(=O)[C@]3(O)C(O)=C(C(N)=O)C(=O)[C@@H](N(C)C)[C@@H]3[C@@H](O)[C@@H]21 [doxy, doxycycline]
[3]
  MIC Ab alone (B) QB: 50 µg/mL

## OCC1CCCO1 (stereo not shown) [THFA, tetrahydrofurfuryl alcohol]
[1]; MRSA, read-out: Other-MIC-
  MIC: 500 µg/mL
